Results taken from patent publication US8466193B2, “Selective inhibitors of histone deacetylase” (Pharmacyclics, Inc., priority 2008, dated 2013).

Assays:
[1] = target: HDAC2 (Homo sapiens, UniProt Q92769); experiment: Histone deacetylase activity, continuous trypsin-coupled assay; assay type: biochemical; details: 15 minutes preincubation; substrate acetyl-Gly-Ala-(N-acetyl-Lys)-AMC
Experimental: (§1) HDAC activity was measured using a continuous trypsin-coupled assay that has been described in detail previously (US 20070281934; Schultz et. al., Biochemistry, 43 (34), 11083-11091, 2004; Kim et al. (2006), Methods Mol. Biol., 325:273-283). For inhibitor characterization, measurements were performed in a reaction volume of 100 μL using 96-well assay plates in a fluorescence plate reader. For each isozyme, the HDAC protein in reaction buffer (50 mM HEPES, 100 mM KCl, 0.001% Tween-20, 5% DMSO, pH 7.4, supplemented with bovine serum albumin at concentrations of 0-0.05%, was mixed with inhibitor at various concentrations and allowed to incubate for 15 minutes. Trypsin was added to a final concentration of 50 nM, and acetyl-Gly-Ala-(N-acetyl-Lys)-AMC was added to a final concentration of 25-100 μM to initiate the reaction. After a 30 minute lag time, the fluorescence was measured over a 30 minute time frame using an excitation wavelength of 355 nm and a detection wavelength of 460 nm. The increase in fluorescence with time was used as the measure of the reaction rate. Inhibition constants Ki(app) were obtained using the program BatchKi (Biokin, Pullman, Wash.).

[2] = target: T1, HDAC8 (Homo sapiens, UniProt Q9BY41); experiment: as above; assay type: biochemical; details: 15 minutes preincubation; substrate acetyl-Gly-Ala-(N-acetyl-Lys)-AMC
T1 sequence (Q9BY41 1-377): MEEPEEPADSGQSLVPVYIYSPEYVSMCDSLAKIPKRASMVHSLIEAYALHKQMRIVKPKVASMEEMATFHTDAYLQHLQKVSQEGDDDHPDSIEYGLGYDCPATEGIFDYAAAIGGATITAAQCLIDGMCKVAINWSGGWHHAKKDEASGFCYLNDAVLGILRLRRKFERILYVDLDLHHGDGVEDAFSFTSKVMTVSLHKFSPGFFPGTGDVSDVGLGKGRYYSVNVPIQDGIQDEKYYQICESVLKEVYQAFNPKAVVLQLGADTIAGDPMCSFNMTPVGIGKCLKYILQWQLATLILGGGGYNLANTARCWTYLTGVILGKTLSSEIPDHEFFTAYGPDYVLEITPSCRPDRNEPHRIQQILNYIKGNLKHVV
Experimental: as §1

[3] = tested on: Jurkat cells; experiment: Cell proliferation assay, growth inhibition by Alamar Blue; assay type: cell-based; details: Jurkat cells treated with compound for 3 days
Experimental: Cell lines were obtained from DSMZ (Braunschweig, Germany) or ATCC (Manassas, Va.). Cells were grown in RPMI 1640 with 10% fetal bovine serum in a 5% CO2/air incubator at 37° C. Thapsigargin and BAPTA-AM were from Calbiochem (San Diego, Calif.). 3-((dimethylamino)methyl)-N-(2-(4-(hydroxycarbamoyl)phenoxy)ethyl)benzofuran-2-carboxamide is a broad-spectrum HDAC inhibitor which was synthesized as previously described. Other analogs with varying degrees of specificity towards the HDAC isoforms were synthesized as described herein.
Tumor cell lines and human umbilical vein endothelial cells (HUVEC) were cultured for at least two doubling times, and growth was monitored at the end of compound exposure using an Alamar Blue™ (Biosource, Camarillo, Calif.) fluorometric cell proliferation assay as recommended by the manufacturer. Compounds were assayed in triplicate wells in 96-well plates. The concentration required to inhibit cell growth by 50% (GI50) and 95% confidence intervals were estimated from nonlinear regression using a 4-parameter logistic equation. The effect of HDAC8 selective inhibitor compounds on cell proliferation in Jurkat cells was measured. Apoptosis was measured by Annexin-V flow cytommetry. Growth inhibition was measured by Alamar Blue assay. Cells were treated with compound for 3 days.

[4] = target: HDAC1 (Homo sapiens, UniProt Q13547); experiment: Histone deacetylase activity, continuous trypsin-coupled assay; assay type: biochemical; details: 15 minutes preincubation; substrate acetyl-Gly-Ala-(N-acetyl-Lys)-AMC
Chain of HDAC1 (Q13547 whole entry, species assumed): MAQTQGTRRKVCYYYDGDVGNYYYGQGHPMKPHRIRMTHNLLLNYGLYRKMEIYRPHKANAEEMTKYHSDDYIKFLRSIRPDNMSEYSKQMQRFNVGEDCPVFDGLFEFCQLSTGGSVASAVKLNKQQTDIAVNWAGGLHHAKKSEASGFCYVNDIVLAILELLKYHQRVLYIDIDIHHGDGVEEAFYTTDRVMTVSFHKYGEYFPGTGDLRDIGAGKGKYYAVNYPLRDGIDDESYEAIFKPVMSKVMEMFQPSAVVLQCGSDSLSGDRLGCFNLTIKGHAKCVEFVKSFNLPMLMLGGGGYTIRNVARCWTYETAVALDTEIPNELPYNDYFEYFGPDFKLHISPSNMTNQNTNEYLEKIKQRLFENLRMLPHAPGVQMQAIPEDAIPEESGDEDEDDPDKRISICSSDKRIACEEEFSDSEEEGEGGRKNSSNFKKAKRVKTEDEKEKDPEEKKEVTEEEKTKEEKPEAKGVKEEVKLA
Experimental: as §1

[5] = target: T2, HDAC6 (Homo sapiens, UniProt Q9UBN7); experiment: as above; assay type: biochemical; details: 15 minutes preincubation; substrate acetyl-Gly-Ala-(N-acetyl-Lys)-AMC
T2 sequence (Q9UBN7 1-1215): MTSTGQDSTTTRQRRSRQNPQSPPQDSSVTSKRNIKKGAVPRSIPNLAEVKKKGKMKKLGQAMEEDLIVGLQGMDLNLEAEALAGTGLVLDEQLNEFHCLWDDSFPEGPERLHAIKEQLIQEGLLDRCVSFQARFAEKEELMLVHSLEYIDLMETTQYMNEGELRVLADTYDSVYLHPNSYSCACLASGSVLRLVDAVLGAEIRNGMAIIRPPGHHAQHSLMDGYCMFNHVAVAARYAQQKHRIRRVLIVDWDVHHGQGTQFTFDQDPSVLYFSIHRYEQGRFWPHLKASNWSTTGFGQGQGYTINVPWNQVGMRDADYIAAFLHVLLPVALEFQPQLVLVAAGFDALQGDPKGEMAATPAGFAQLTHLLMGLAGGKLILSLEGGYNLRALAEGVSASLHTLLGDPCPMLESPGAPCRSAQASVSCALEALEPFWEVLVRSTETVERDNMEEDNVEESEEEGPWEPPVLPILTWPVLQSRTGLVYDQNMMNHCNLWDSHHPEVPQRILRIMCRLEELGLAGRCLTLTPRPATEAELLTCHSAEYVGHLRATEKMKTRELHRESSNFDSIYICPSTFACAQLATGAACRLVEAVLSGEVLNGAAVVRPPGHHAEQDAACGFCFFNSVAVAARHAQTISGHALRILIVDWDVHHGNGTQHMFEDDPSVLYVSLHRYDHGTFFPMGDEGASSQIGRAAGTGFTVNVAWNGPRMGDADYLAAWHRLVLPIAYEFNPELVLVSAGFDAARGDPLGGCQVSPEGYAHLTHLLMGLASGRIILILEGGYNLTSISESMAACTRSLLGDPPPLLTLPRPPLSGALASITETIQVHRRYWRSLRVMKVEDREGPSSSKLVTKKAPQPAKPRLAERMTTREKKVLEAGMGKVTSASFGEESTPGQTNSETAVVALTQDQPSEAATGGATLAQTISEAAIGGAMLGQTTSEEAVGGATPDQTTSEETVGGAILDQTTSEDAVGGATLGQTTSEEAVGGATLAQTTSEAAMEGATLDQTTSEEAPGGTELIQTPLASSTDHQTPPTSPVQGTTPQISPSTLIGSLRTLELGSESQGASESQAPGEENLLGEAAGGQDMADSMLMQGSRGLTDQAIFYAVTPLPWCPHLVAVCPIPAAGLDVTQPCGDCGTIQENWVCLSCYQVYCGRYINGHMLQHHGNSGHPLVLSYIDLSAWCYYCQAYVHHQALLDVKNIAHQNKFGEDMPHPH
Experimental: as §1

[6] = target: T3, HDAC10 (Homo sapiens, UniProt Q969S8); experiment: as above; assay type: biochemical; details: 15 minutes preincubation; substrate acetyl-Gly-Ala-(N-acetyl-Lys)-AMC
T3 sequence (Q969S8 1-669): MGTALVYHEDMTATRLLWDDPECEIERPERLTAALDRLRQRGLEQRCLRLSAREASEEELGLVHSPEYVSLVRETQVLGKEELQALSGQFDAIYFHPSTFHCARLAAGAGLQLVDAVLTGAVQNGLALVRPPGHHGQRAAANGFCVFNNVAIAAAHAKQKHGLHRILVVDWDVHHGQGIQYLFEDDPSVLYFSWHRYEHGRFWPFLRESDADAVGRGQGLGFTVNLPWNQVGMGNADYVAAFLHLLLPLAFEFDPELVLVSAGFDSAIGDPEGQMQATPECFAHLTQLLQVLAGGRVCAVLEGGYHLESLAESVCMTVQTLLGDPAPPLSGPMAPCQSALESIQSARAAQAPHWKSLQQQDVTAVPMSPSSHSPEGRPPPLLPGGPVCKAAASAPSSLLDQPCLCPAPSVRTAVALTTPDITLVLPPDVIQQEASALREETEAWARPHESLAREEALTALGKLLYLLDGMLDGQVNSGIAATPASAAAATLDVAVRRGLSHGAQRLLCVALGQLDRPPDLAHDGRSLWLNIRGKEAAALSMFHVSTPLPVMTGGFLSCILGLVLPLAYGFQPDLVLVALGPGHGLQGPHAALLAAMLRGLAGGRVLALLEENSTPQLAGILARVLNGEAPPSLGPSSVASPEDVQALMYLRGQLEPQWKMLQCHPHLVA
Experimental: as §1

Chain of HDAC2 (Q92769 whole entry, species assumed): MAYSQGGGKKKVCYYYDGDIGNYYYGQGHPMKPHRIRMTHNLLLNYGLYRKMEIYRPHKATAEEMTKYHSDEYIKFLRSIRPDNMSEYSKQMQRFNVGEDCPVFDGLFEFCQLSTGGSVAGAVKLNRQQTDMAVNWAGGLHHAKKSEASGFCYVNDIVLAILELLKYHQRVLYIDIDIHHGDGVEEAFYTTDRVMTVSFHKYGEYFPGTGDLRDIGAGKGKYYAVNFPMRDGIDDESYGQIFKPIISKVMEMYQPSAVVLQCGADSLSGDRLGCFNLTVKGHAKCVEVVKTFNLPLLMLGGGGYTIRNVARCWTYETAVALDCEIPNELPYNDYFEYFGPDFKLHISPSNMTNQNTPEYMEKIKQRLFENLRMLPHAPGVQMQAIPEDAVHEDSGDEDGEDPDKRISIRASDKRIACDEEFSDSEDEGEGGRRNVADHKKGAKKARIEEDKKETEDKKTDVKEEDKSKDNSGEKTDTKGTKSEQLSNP

## COc1ccc(Cn2ccc3ccc(C(=O)NO)cc32)cn1 [Compound 310, N-hydroxy-1-(2-methoxylpyridin-5-ylmethyl)-1H-indole-6-carboxamide]
[1]
  IC50: > 10 µM
[2]
  IC50: < 1 µM
[3]; Homo sapiens, 72 h
  GI50: 16 µM

## O=C(NO)c1ccc2ccn(CCOc3ccc(CN4CCOCC4)cc3)c2c1 [Compound 328, N-hydroxy-1-(2-(4-(morpholin-4-ylmethyl)phenoxy)ethyl)-1H-indole-6-carboxamide]
[3]; Homo sapiens, 72 h
  GI50: 12.5 µM

## O=C(NO)c1ccc2ccn(CCOc3cccc(Cl)c3)c2c1 [Compound 321, N-hydroxy-1-(2-(3-chlorophenoxy)ethyl)-1H-indole-6-carboxamide]
[4]
  IC50: > 10 µM
[5]
  IC50: 1 to 10 µM
[2]
  IC50: < 1 µM

## O=C(NO)c1ccc2ccn(CCOc3ccccc3Cl)c2c1 [Compound 320, N-hydroxy-1-(2-(2-chlorophenoxy)ethyl)-1H-indole-6-carboxamide]
[4]
  IC50: > 10 µM
[5]
  IC50: 1 to 10 µM
[2]
  IC50: < 1 µM

## O=C(/C=C/c1cccn1CCOc1cccc(F)c1)NO [Compound 234, (E)-3-(1-(2-(3-fluorophenoxy)ethyl)-1H-pyrrol-2-yl)-N-hydroxyacrylamide]
[4]
  IC50: 1 to 10 µM
[5]
  IC50: 1 to 10 µM
[2]
  IC50: < 1 µM
[3]; Homo sapiens, 72 h
  GI50: 4.3 µM

## COc1ccc(Cn2ccc3ccc(C(=O)NO)cc32)cc1 [Compound 306, N-hydroxy-1-(4-methoxybenzyl)-1H-indole-6-carboxamide]
[3]; Homo sapiens, 72 h
  GI50: 3.6 µM

## O=C(/C=C/c1cccn1CCOc1ccccc1)NO [Compound 232, (E)-N-hydroxy-3-(2-phenoxyethyl-1H-pyrrol-2-yl)acrylamide]
[4]
  IC50: > 10 µM
[5]
  IC50: 1 to 10 µM
[2]
  IC50: < 1 µM
[3]
  GI50: 4.98 µM

## COc1ccc(Cn2cc(CN(C)CCc3ccccn3)c3ccc(C(=O)NO)cc32)cc1 [Compound 309, N-hydroxy-1-(4-methoxybenzyl)-3-((methyl(2-(pyridin-2-yl)ethyl)amino)methyl)-1H-indole-6-carboxamide]
[1]
  IC50: > 10 µM
[2]
  IC50: < 1 µM
[3]; Homo sapiens, 72 h
  GI50: 19.2 µM

## O=C(NO)c1ccc2ccn(Cc3ccc4c(c3)OCO4)c2c1 [Compound 315, N-hydroxy-1-(benzo[d][1,3]dioxol-5-ylmethyl)-1H-indole-6-carboxamide]
[1]
  IC50: > 10 µM
[2]
  IC50: < 1 µM

## COc1ccc(Cn2cccc2/C=C/C(=O)NO)cc1 [Compound 203, (E)-3-(1-(4-methoxybenzyl)-1H-pyrrol-2-yl)-N-hydroxyacrylamide]
[4]
  IC50: > 10 µM
[5]
  IC50: 1 to 10 µM
[2]
  IC50: < 1 µM

## COc1ccc(Cn2cc(CN(C)C)c3ccc(C(=O)NO)cc32)cc1 [Compound 307, N-hydroxy-1-(4-methoxybenzyl)-3-(dimethylaminomethyl)-1H-indole-6-carboxamide]
[1]
  IC50: > 10 µM
[2]
  IC50: < 1 µM

## O=C(NO)c1ccc2ncn(Cc3ccccc3)c2c1 [Compound 1, 3-benzyl-N-hydroxy-3H-benzo[d]imidazole-5-carboxamide]
[4]
  IC50: > 10 µM
[5]
  IC50: 1 to 10 µM
[2]
  IC50: < 1 µM

## O=C(NO)c1ccc2ccn(CCOc3cccc(F)c3)c2c1 [Compound 318, N-hydroxy-1-(2-(3-fluorophenoxy)ethyl)-1H-indole-6-carboxamide]
[4]
  IC50: > 10 µM
[5]
  IC50: 1 to 10 µM
[2]
  IC50: < 1 µM

## O=C(NO)c1ccc2ccn(CCc3ccccc3)c2c1 [Compound 302, N-hydroxy-1-(2-phenyl-ethyl)-1H-indole-6-carboxamide]
[3]; Homo sapiens, 72 h
  GI50: 25.2 µM

## O=C(NO)c1ccc2ccn(Cc3cccc(NS(=O)(=O)c4ccccc4)c3)c2c1 [Compound 313, N-hydroxy-1-(3-(phenylsulfonamido)benzyl)-1H-indole-6-carboxamide]
[1]
  IC50: 1 to 10 µM
[2]
  IC50: < 1 µM
[3]; Homo sapiens, 72 h
  GI50: 5.2 µM

## O=C(NO)c1ccc2ccn(CCOc3ccccc3F)c2c1 [Compound 317, N-hydroxy-1-(2-(2-fluorophenoxy)ethyl)-1H-indole-6-carboxamide]
[4]
  IC50: > 10 µM
[5]
  IC50: 1 to 10 µM
[2]
  IC50: < 1 µM

## COc1ccc(Cn2ccc3ccc(C(=O)NO)cc32)cc1F [Compound 330, N-hydroxy-1-(3-fluoro-4-methoxybenzyl)-1H-indole-6-carboxamide]
[3]; Homo sapiens, 72 h
  GI50: 4.7 µM

## O=C(NO)c1ccc2ccn(CCOc3ccccc3CN3CCOCC3)c2c1 [Compound 326, N-hydroxy-1-(2-(2-(morpholin-4-ylmethyl)phenoxy)ethyl)-1H-indole-6-carboxamide]
[4]
  IC50: > 10 µM
[6]
  IC50: > 10 µM
[5]
  IC50: > 10 µM
[2]
  IC50: < 1 µM

## COc1ccc(Cn2cc(CNCc3ccccc3)c3ccc(C(=O)NO)cc32)cc1 [Compound 308, 3-((benzylamino)methyl)-N-hydroxy-1-(4-methoxybenzyl)-1H-indole-6-carboxamide]
[3]; Homo sapiens, 72 h
  GI50: 5.2 µM
